In patent US7238469B2, “Carbon monoxide improves outcomes in tissue and organ transplants and suppresses apoptosis” (priority 2001, dated 2007):

What was measured:
[1] = tested on: murine islets of Langerhans; assay: DNA fragmentation analysis (FACScan) of murine islets stimulated with TNF-α and cycloheximide; format: cell-based, C57BL/6 mice; settings: isolated murine islets; TNF-α plus cycloheximide; CO 1% for 24 hours; analysed after 48 hours
Experimental: βTC3 cultures were incubated with recombinant TNF-α (500 or 1000 U/ml) (R&D Systems) for 24 hours and islet cultures were stimulated with TNF-É (5000 U/ml) (R&D Systems) and cyclohexamide (CHX) (50 μg/ml) for 48 hours. βTC3 or islets were harvested, dispersed, fixed in 70% ethanol, and suspended in DNA staining buffer (PBS, pH 7.4, containing 0.1% Triton X-100, 0.1 mM EDTA, 50 μg/ml propidium iodide, […] Rnase A). DNA content was analyzed on a FACScan™ analyzer equipped with Cell QuestO Software (Becton Dickinson, Palo Alto, Calif.). Cells with a normal DNA content (2N) were scored as viable, whereas cells with a hypoploid DNA content (<2N, termed A^0) were scored as apoptotic. To exclude debris and apoptotic cell-free fragments, all events with an FL-2 area profile below that of chicken erythrocyte nuclei were excluded from analysis.
(§1) Cells and islets were exposed to 1% carbon monoxide in compressed air balanced with 5% CO2, as described elsewhere (see, e.g., Otterbein et al., Nature Med. 6:422–428, 2000). Islets were incubated in RPMI medium pre-saturated with carbon monoxide (4° C. overnight, 1% CO, 5% CO2) for two hours at 37° C. while treatment with 1% CO, 5% CO2 was continued.
Whether exogenous carbon monoxide protects murine islet cells from apoptosis was also investigated (FIG. 3). […] After 48 hours cells were analyzed on a FACScan™ for DNA fragmentation. […]

[2] = tested on: islets transplanted under the kidney capsule of diabetic syngeneic recipients; assay: Syngeneic marginal mass islet transplantation, time to normoglycemia; format: in vivo, C57BL/6 mice; settings: 250 islets pre-incubated two hours in medium pre-saturated with 1% CO
Experimental: as §1
Male C57BL/6 were purchased from Charles River Laboratories (Wilmington, Mass.) and housed in accordance with guidelines from the NIH. The experiments were approved by the Institutional Animal Care and Use Committee (IACUC). Recipient mice (8 weeks old) were rendered diabetic by a single intraperitoneal injection (220 mg/kg) of StreptozotocinO (Sigma) dissolved in citrate buffer. Mice received transplants if 2 consecutive non-fasting blood glucose levels of greater than 350 mg/dl were obtained from a whole blood sample.
250 islets 150–250 îm in diameter were hand-picked using a dissecting microscope. Islets were transplanted under the kidney capsule as described previously (Kaufman et al., J. Exp. Med. 172:291–302, 1990). […]
Whether carbon monoxide pre-incubation of islet grafts prior to transplantation results in better functional performance in vivo was investigated (FIGS. 6A–B). […] After transplantation, blood glucose levels were determined on a daily basis. […]

[3] = tested on: mouse hearts transplanted into rats; assay: Histomorphometric analysis of infarcted area in transplanted hearts; format: in vivo, BALB/c mouse hearts, Lewis rats; settings: 3 days after transplantation; SnPPIX treated rats that received exogenous CO
Source text: Grafts were harvested 3 days after transplantation, […], and serially sectioned (5 îm) in toto from the apex to the base. Ten sections were placed per slide in a total of about 20–25 slides. Every fifth slide was stained with hematoxylin and eosin (H&E) for histomorphometric analysis. Two images per slide were captured by using a Nikon Eclipse E600O microscope (Nikon, Melville, N.Y.) connected to a Hitachi 3-CCD Color Camera (model HV-C20; Hitachi, Tokyo, Japan) and to a Power MacintoshO 7300/200 computer (Apple Computer, Cupertino, Calif.) equipped with IPLab Spectrum digital imaging software (Signal Analytics Corporation, Vienna, Va.). About 50 images were captured from each transplanted heart from two to three animals per group. Images were analyzed by manual segmentation, tracing the infarcted and noninfarcted areas from the right and left ventricles in each section. Areas corresponding to infarcted and noninfarcted tissue were calculated by digital imaging software as number of pixels corresponding to those areas. Infarcted and noninfarcted areas were then calculated as percentage of total area. Pooled data for each group, expressed as area in pixels or as percentage of infarction, was analyzed by using ANOVA. […] Results are expressed as mean=SD. […]

## [C-]#[O+] [CO, carbon monoxide]
[1]
  apoptotic cells (DNA fragmentation analysis): 11.7%
[2]
  time needed to reach normoglycemia (median): 7 days
[3]
  infarction of the left ventricle: 1.8±3.4%
  infarction of the right ventricle: 8.4±5.3%
